Assay results: patent publication US8927717B1, “Thiochromeno[2,3-c]quinolin-12-one derivatives, preparation method and application thereof” (National Defense Medical Center, priority 2014, dated 2015)

Columns and labels:
MALME-3M = type: cell-based; details: 10^−5 molar
KM12 = test: cells; type: cell-based; details: 10^−5 molar
NCI-H460 = type: cell-based; details: 10^−5 molar
T-47D = type: cell-based; details: 10^−5 molar
SK-OV-3 = type: cell-based; details: 10^−5 molar
NCI/ADR-RES = type: cell-based; details: 10^−5 molar
MOLT-4 = type: cell-based; details: 10^−5 molar
PC-3 = type: cell-based; details: 10^−5 molar
UACC-257 = type: cell-based; details: 10^−5 molar
MCF7 = type: cell-based; details: 10^−5 molar
HS 578T = type: cell-based; details: 10^−5 molar
LOX IMVI = type: cell-based; details: Melanoma; 10^−5 molar; 48 hours; SRB
NCI-H522 = type: cell-based; details: 10^−5 molar
ACHN = type: cell-based; details: 10^−5 molar
RXF 393 = type: cell-based; details: 10^−5 molar
U251 = type: cell-based; details: CNS cancer; 10^−5 molar; 48 hours; SRB
SF-295 = type: cell-based; details: 10^−5 molar
HCC-2998 = type: cell-based; details: 10^−5 molar
OVCAR-5 = type: cell-based; details: 10^−5 molar
NCI-H23 = type: cell-based; details: 10^−5 molar
DU-145 = type: cell-based; details: 10^−5 molar
SK-MEL-5 = type: cell-based; details: 10^−5 molar
NCI-H226 = type: cell-based; details: 10^−5 molar
SNB-19 = type: cell-based; details: 10^−5 molar
OVCAR-3 = type: cell-based; details: 10^−5 molar
MDA-MB-231/ATCC = type: cell-based; details: 10^−5 molar
SNB-75 = type: cell-based; details: 10^−5 molar
MDA-MB-486 = type: cell-based; details: 10^−5 molar
UACC-62 = type: cell-based; details: 10^−5 molar
SF-268 = type: cell-based; details: 10^−5 molar
RPMI-8226 = type: cell-based; details: 10^−5 molar
60 cancer cell lines = test: NCI 60-cell screen, SRB, whole panel (mean, delta, range); type: cell-based; details: 10^−5 molar
BT-549 = type: cell-based; details: 10^−5 molar
CCRF-CEM = type: cell-based; details: 10^−5 molar
HCT-116 = type: cell-based; details: 10^−5 molar
SK-MEL-28 = type: cell-based; details: 10^−5 molar
COLO 205 = type: cell-based; details: 10^−5 molar
UO-31 = type: cell-based; details: 10^−5 molar
SW-620 = type: cell-based; details: 10^−5 molar
A549/ATCC = type: cell-based; details: 10^−5 molar
OVCAR-8 = type: cell-based; details: 10^−5 molar
CAKI-1 = type: cell-based; details: 10^−5 molar
A498 = type: cell-based; details: 10^−5 molar
SR = type: cell-based; details: 10^−5 molar
HOP-62 = type: cell-based; details: 10^−5 molar
HCT-15 = type: cell-based; details: 10^−5 molar
MDA-MB-435 = type: cell-based; details: 10^−5 molar
HT29 = type: cell-based; details: 10^−5 molar
SN12C = type: cell-based; details: 10^−5 molar
SF-539 = type: cell-based; details: 10^−5 molar
OVCAR-4 = type: cell-based; details: 10^−5 molar
786-0 = type: cell-based; details: 10^−5 molar
M14 = type: cell-based; details: 10^−5 molar
K-562 = type: cell-based; details: 10^−5 molar
TK-10 = type: cell-based; details: 10^−5 molar
IGROV1 = type: cell-based; details: 10^−5 molar
HL-60(TB) = type: cell-based; details: 10^−5 molar
[1] = Non-small cell lung cancer, 48 hours, SRB

CCC(CO)Nc1nc2ccccc2c2c(=O)c3cc(Cl)ccc3sc12 (stereo not shown) [Compound N12, 10-Chloro-6-((1-hydroxybutan-2-yl)amino)-12H-thiochromeno[2,3-c]quinolin-12-one]
Growth percent MALME-3M (MALME-3M; Melanoma, 48 hours, SRB): 58.66% | Growth percent KM12 (KM12; Colon cancer, 48 hours, SRB): 82.37% | melting point: 203 to 204 °C | Growth percent NCI-H460 (NCI-H460; [1]): 83.78% | Growth percent T-47D (T-47D; Breast cancer, 48 hours, SRB): 46.94% | Growth percent SK-OV-3 (SK-OV-3; Ovarian cancer, 48 hours, SRB): 58.93% | Growth percent NCI/ADR-RES (NCI/ADR-RES; Ovarian cancer, 48 hours, SRB): 77.02% | Growth percent MOLT-4 (MOLT-4; Leukemia, 48 hours, SRB): 61.79% | Growth percent PC-3 (PC-3; Prostate cancer, 48 hours, SRB): 58.35% | Growth percent UACC-257 (UACC-257; Melanoma, 48 hours, SRB): 95.71% | Growth percent MCF7 (Table 2: MCF) (MCF7; Breast cancer, 48 hours, SRB): 40.92% | Growth percent HS 578T (HS 578T; Breast cancer, 48 hours, SRB): 52.66% | Growth percent LOX IMVI (LOX IMVI): 79.25% | Growth percent NCI-H522 (NCI-H522; [1]): 64.07% | Growth percent ACHN (ACHN; Renal cancer, 48 hours, SRB): 69.12% | Growth percent RXF 393 (RXF 393; Renal cancer, 48 hours, SRB): 71.61% | Growth percent U251 (U251): 74.49% | Growth percent SF-295 (SF-295; CNS cancer, 48 hours, SRB): 89.58% | Growth percent HCC-2998 (HCC-2998; Colon cancer, 48 hours, SRB): 99.61% | Growth percent OVCAR-5 (OVCAR-5; Ovarian cancer, 48 hours, SRB): 88.01% | Growth percent NCI-H23 (NCI-H23; [1]): 81.25% | Growth percent DU-145 (DU-145; Prostate cancer, 48 hours, SRB): 87.04% | Growth percent SK-MEL-5 (SK-MEL-5; Melanoma, 48 hours, SRB): 87.19% | Growth percent NCI-H226 (NCI-H226; [1]): 77.56% | Growth percent SNB-19 (SNB-19; CNS cancer, 48 hours, SRB): 93.87% | Growth percent OVCAR-3 (OVCAR-3; Ovarian cancer, 48 hours, SRB): 96.34% | Growth percent MDA-MB-231/ATCC (MDA-MB-231/ATCC; Breast cancer, 48 hours, SRB): 58.29% | Growth percent SNB-75 (SNB-75; CNS cancer, 48 hours, SRB): 31.01% | Growth percent MDA-MB-486 (MDA-MB-486; Breast cancer, 48 hours, SRB): 80.85% | Growth percent UACC-62 (UACC-62; Melanoma, 48 hours, SRB): 76.17% | Growth percent SF-268 (SF-268; CNS cancer, 48 hours, SRB): 76.71% | Growth percent RPMI-8226 (RPMI-8226; Leukemia, 48 hours, SRB): 73.50% | Growth percent, Delta (60 cancer cell lines; delta over the cell panel, 48 hours, SRB): 42.51% | Growth percent, Mean (60 cancer cell lines; mean over the cell panel, 48 hours, SRB): 73.52% | Growth percent, Range (60 cancer cell lines; range over the cell panel, 48 hours, SRB): 68.60% | Growth percent BT-549 (BT-549; Breast cancer, 48 hours, SRB): 85.96% | Growth percent CCRF-CEM (CCRF-CEM; Leukemia, 48 hours, SRB): 70.00% | Growth percent HCT-116 (HCT-116; Colon cancer, 48 hours, SRB): 73.42% | Growth percent SK-MEL-28 (SK-MEL-28; Melanoma, 48 hours, SRB): 82.86% | Growth percent COLO 205 (COLO 205; Colon cancer, 48 hours, SRB): 68.37% | Growth percent UO-31 (UO-31; Renal cancer, 48 hours, SRB): 51.01% | Growth percent SW-620 (SW-620; Colon cancer, 48 hours, SRB): 84.32% | Growth percent A549/ATCC (A549/ATCC; [1]): 69.86% | Growth percent OVCAR-8 (OVCAR-8; Ovarian cancer, 48 hours, SRB): 68.74% | Growth percent CAKI-1 (CAKI-1; Renal cancer, 48 hours, SRB): 59.29% | Growth percent A498 (A498; Renal cancer, 48 hours, SRB): 74.62% | Growth percent SR (SR; Leukemia, 48 hours, SRB): 62.38% | Growth percent HOP-62 (HOP-62; [1]): 55.91% | Growth percent HCT-15 (HCT-15; Colon cancer, 48 hours, SRB): 77.58% | Growth percent MDA-MB-435 (MDA-MB-435; Melanoma, 48 hours, SRB): 92.11% | Growth percent HT29 (HT29; Colon cancer, 48 hours, SRB): 78.24% | Growth percent SN12C (SN12C; Renal cancer, 48 hours, SRB): 81.98% | Growth percent SF-539 (SF-539; CNS cancer, 48 hours, SRB): 83.86% | Growth percent OVCAR-4 (OVCAR-4; Ovarian cancer, 48 hours, SRB): 83.23% | Growth percent 786-0 (786-0; Renal cancer, 48 hours, SRB): 82.86% | Growth percent M14 (M14; Melanoma, 48 hours, SRB): 85.38% | Growth percent K-562 (K-562; Leukemia, 48 hours, SRB): 46.86% | Growth percent TK-10 (TK-10; Renal cancer, 48 hours, SRB): 77.45% | Growth percent IGROV1 (IGROV1; Ovarian cancer, 48 hours, SRB): 66.54% | Growth percent HL-60(TB) (HL-60(TB); Leukemia, 48 hours, SRB): 96.29%

O=c1c2cc(Cl)ccc2sc2c(NC3CCCCC3)nc3ccccc3c12 [Compound N21, 10-Chloro-6-(cyclohexylamino)-12H-thiochromeno[2,3-c]quinolin-12-one]
Growth percent (MALME-3M; MALME-3M): 93.42% | Growth percent (KM12; KM12): 112.90% | melting point: 196 to 197 °C | Growth percent (NCI-H460; NCI-H460): 91.29% | Growth percent (T-47D; T-47D): 72.43% | Growth percent (SK-OV-3; SK-OV-3): 94.54% | Growth percent (NCI/ADR-RES; NCI/ADR-RES): 95.91% | Growth percent (MOLT-4; MOLT-4): 92.42% | Growth percent (PC-3; PC-3): 75.02% | Growth percent (UACC-257; UACC-257): 103.68% | Growth percent (MCF7; MCF7): 46.14% | Growth percent (HS 578T; HS 578T): 94.22% | Growth percent (NCI-H522; NCI-H522): 83.95% | Growth percent (ACHN; ACHN): 97.31% | Growth percent (RXF 393; RXF 393): 97.03% | Growth percent (SF-295; SF-295): 92.22% | Growth percent (HCC-2998; HCC-2998): 109.83% | Growth percent (OVCAR-5; OVCAR-5): 98.06% | Growth percent (NCI-H23; NCI-H23): 91.11% | Growth percent (DU-145; DU-145): 104.25% | Growth percent (SK-MEL-5; SK-MEL-5): 97.00% | Growth percent (NCI-H226; NCI-H226): 93.26% | Growth percent (SNB-19; SNB-19): 106.72% | Growth percent (OVCAR-3; OVCAR-3): 91.85% | Growth percent (MDA-MB-231/ATCC; MDA-MB-231/ATCC): 77.17% | Growth percent (SNB-75; SNB-75): 81.91% | Growth percent (MDA-MB-486; MDA-MB-486): 108.92% | Growth percent (UACC-62; UACC-62): 93.23% | Growth percent (SF-268; SF-268): 92.06% | Growth percent (RPMI-8226; RPMI-8226): 94.56% | Growth percent, Delta (60 cancer cell lines; delta over panel): 46.48% | Growth percent, Mean (60 cancer cell lines; mean over panel): 92.62% | Growth percent, Range (60 cancer cell lines; range over panel): 81.82% | Growth percent (BT-549; BT-549): 105.53% | Growth percent (CCRF-CEM; CCRF-CEM): 92.23% | Growth percent (HCT-116; HCT-116): 65.37% | Growth percent (SK-MEL-28; SK-MEL-28): 101.79% | Growth percent (COLO 205; COLO 205): 103.96% | Growth percent (UO-31; UO-31): 72.52% | Growth percent (SW-620; SW-620): 87.98% | Growth percent (A549/ATCC; A549/ATCC): 85.28% | Growth percent (OVCAR-8; OVCAR-8): 74.91% | Growth percent (CAKI-1; CAKI-1): 72.76% | Growth percent (A498; A498): 93.00% | Growth percent (SR; SR): 85.52% | Growth percent (HOP-62; HOP-62): 101.46% | Growth percent (HCT-15; HCT-15): 91.71% | Growth percent (MDA-MB-435; MDA-MB-435): 106.98% | Growth percent (HT29; HT29): 105.11% | Growth percent (SN12C; SN12C): 89.12% | Growth percent (SF-539; SF-539): 91.20% | Growth percent (OVCAR-4; OVCAR-4): 72.10% | Growth percent (786-0; 786-0): 97.69% | Growth percent (M14; M14): 103.41% | Growth percent (K-562; K-562): 102.86% | Growth percent (TK-10; TK-10): 127.96% | Growth percent (IGROV1; IGROV1): 83.31% | Growth percent (HL-60(TB); HL-60(TB)): 107.06%
